Test results taken from US20220167645A1, “METHODS OF IMPROVING FISH FEED CONVERSION RATE AND SURVIVAL” (AQUINOVO LTD., priority 2019, published 2022).
Numbered stars: 1 amine (or outer) side, 2 acyl side, 3 side chain; on linkers, the order of the positions; unused ones are H or OH. Square brackets hold non-standard residues; d marks the D form. Suc = O=C(CCC(=O)[*:2])[*:1]; NMeV = CN[C@H](C(=O)O)C(C)C; βAla = NCCC(=O)O

Test system: Tilapia fish
Experiment: Experiment #3: tilapia fed AN6-coated feed, treatment schedules 1 to 8 (survival, weight, length, size distribution, FCR)
Format: in vivo
Conditions: for Average weight/fish (g) / Total weight/cage (g) / Average FCR/cage / Average density (body/cage) / Average weight gain/fish (g): D 236 to D 279, % change relative to control; for % big fish (Big fish 279 dph >1000 g) / % small fish (Small fish 279 dph >476 g) / Δ Treatment - Control (%) big fish (>1000 g) / Δ Treatment - Control (%) small fish (>476 g) / Big fish # (Big fish 279 dph >1000 g) / Small fish # (Small fish 279 dph): 279 dph
Description: The following fish feed was used in this experiment: MeM (powder, manufactured by Bern Aqua), Nanolis P1, P2 (pellet sizes of 1 mm, 1.2-1.5 mm, respectively, manufactured by Ocialis) and Tilaphi 2, 3 & 4 (pellet sizes of 2 mm, 3-4 mm & 5.5 mm manufactured by Ocialis). The feed content is in described in Table 4.
Feed was coated using the following general procedure: Different amounts of the peptide AN6 (SEQ ID NO: 6) were prepared by dissolving the peptide in Tris-HCl solution (50 mM, pH=8.8) in ratio of 15 mg peptide to 1.25 ml Tris-HCl solution. Then, each of the various solutions was mixed with 3 Kg of the basic feed pellets (depending on fish size) using an electric mixer. The peptide-feed mixtures where then dried either in oven at 40° C. for 24 hours or in drying drum (at room temperature) for few hours to form coated pellets.
Tilapia fish (n=4800) were raised from day 10 (0.05 g) post-hatch (dph) in indoor tanks and then transferred to outdoor cages in ponds (40-279 dph). Each cage/tank is an experimental unit. The fish were fed to apparent satiation 2-4 times a day with feed appropriate to their age and treatment as described in Table 5.
The trial included total 48 cages representing 8 treatments, with 6 repeats each. Each cage contained about 100 fish. […] Fed to fish throughout the entire growth-trial period (for 279 days); • Treatment 2 (5 ppm from 10 dph for 120 days): The control diet with the addition of 5 mg peptide/kg of diet (Feed F). Fish were fed the peptide enriched diet for 120 days (4 months), from 10 days of age (D0—the first day of the experiment) to 130 days of age (D120), and the control diet during the last 6 months (159 days) (Feed E); • Treatment 3 (10 ppm from 10 dph for 60 days): The control diet with the addition of 10 mg peptide/kg of diet (Feed G). […] Fish were fed the peptide enriched diet for 90 days (3 months) from 10 days of age (D0) to 100 days of age (D90) and the control diet for the last 7 months (189 days) (Feed E); • Treatment 5 (10 ppm from 10 dph for 120 days): The control diet with the addition of 10 mg peptide/kg of diet (Feed G). Fish were fed the peptide enriched diet for 120 days (4 months) from 10 days of age (D0) to 130 days of age (D120) and the control diet for the last 6 months (159 days) (Feed E); • Treatment 6 (10 ppm from 100 dph for 30 days): The control diet with the addition of 10 mg peptide/kg of diet (Feed G). Fish were fed the peptide enriched diet for 30 days (1 month) from 100 days of age (D90) to 130 days of age (D120) and the control diet for the first three months (90 days from D0 to D90) and the last 6 months (159 days) (Feed E); • Treatment 7 (30 ppm from 10 dph for 60 days): The control diet with the addition of 30 mg peptide/kg of diet (Feed H). Fish were fed the peptide enriched diet for 60 days (2 months) from 10 days of age (D0) to 70 days of age (D60), and the control diet during the last 8 months (219 days) (Feed E); • Treatment 8 (30 ppm from 10 dph for 90 days): The control diet with the addition of 30 mg peptide/kg of diet (Feed H). Fish were fed the peptide enriched diet for 90 days (3 months) from 10 days of age (D0) to 100 days of age (D90) and the control diet for the last 7 months (189 days) (Feed E).
During the experimental period, fish weight and length were measured once a month. Individual fish sex was determined at days 96 and 279 of the experiment. Average fish weight per cage were calculated for each measurement period (FIG. 8). […] Between two weight measurements, average weight gain (FIG. 9A) and daily growth rates (FIG. 9B) were calculated by subtracting the average weight at the beginning and end of the measuring period and dividing by the number of days between.
In order to determine the efficiency of feed conversion into fish substance in experiments (#1, #2, #3), FCR values which reflect the amount of feed needed to grow a kilogram fish, were calculated for each period and for the entire fish growth period. […]

[1] = Treatment 5 (10 ppm from 10 dph for 120 days)
[2] = Treatment 5 (10 ppm from 10 dph for 120 days), female fish, D 96
[3] = Treatment 5 (10 ppm from 10 dph for 120 days), female fish, D 279
[4] = Treatment 5 (10 ppm from 10 dph for 120 days), male fish, D 96
[5] = Treatment 5 (10 ppm from 10 dph for 120 days), male fish, D 279
[6] = Treatment 6 (10 ppm from 100 dph for 30 days)
[7] = Treatment 6 (10 ppm from 100 dph for 30 days), of 442 fish
[8] = Treatment 6 (10 ppm from 100 dph for 30 days), female fish, D 96
[9] = Treatment 6 (10 ppm from 100 dph for 30 days), female fish, D 279
[10] = Treatment 6 (10 ppm from 100 dph for 30 days), male fish, D 96
[11] = Treatment 6 (10 ppm from 100 dph for 30 days), male fish, D 279
[12] = Treatment 7 (30 ppm from 10 dph for 60 days)
[13] = Treatment 7 (30 ppm from 10 dph for 60 days), of 427 fish
[14] = Treatment 7 (30 ppm from 10 dph for 60 days), female fish, D 96
[15] = Treatment 7 (30 ppm from 10 dph for 60 days), female fish, D 279
[16] = Treatment 7 (30 ppm from 10 dph for 60 days), male fish, D 96
[17] = Treatment 7 (30 ppm from 10 dph for 60 days), male fish, D 279
[18] = Treatment 8 (30 ppm from 10 dph for 90 days)
[19] = Treatment 8 (30 ppm from 10 dph for 90 days), of 446 fish
[20] = Treatment 8 (30 ppm from 10 dph for 90 days), female fish, D 96
[21] = Treatment 8 (30 ppm from 10 dph for 90 days), female fish, D 279
[22] = Treatment 8 (30 ppm from 10 dph for 90 days), male fish, D 96
[23] = Treatment 8 (30 ppm from 10 dph for 90 days), male fish, D 279

For “Succ-Asp-Ser- D-Trp -N(Me)Val-βAla-Leu-Met-NH2 (Suc-DS[dW][NMeV][βAla]LM-NH2; SMILES CSCC[C@H](NC(=O)[C@H](CC(C)C)NC(=O)CCNC(=O)[C@H](C(C)C)N(C)C(=O)[C@@H](Cc1c[nH]c2ccccc12)NC(=O)[C@H](CO)NC(=O)[C@H](CC(=O)O)NC(=O)CCC(=O)O)C(N)=O) [AN6]”, the “Average weight/fish (g)” value [1] was 3.29%, the “Total weight/cage (g)” value [1] was 1.28% and the “Length/fish (cm) Mean” value [2] was 15.95 cm. For the same substance, the “Weight/fish (g) Mean” value [2] was 82.96 g, the “Δ Mean % (Treatment vs. control) Length/fish” value [2] was 1.01% and the “Δ Mean % (Treatment vs. control) Weight/fish” value [2] was 0.90%. The “Length/fish (cm) Mean” value [3] was 30.33 cm, the “Weight/fish (g) Mean” value [3] was 611.23 g and the “Δ Mean % (Treatment vs. control) Length/fish” value [3] was 0.66%. The “Δ Mean % (Treatment vs. control) Weight/fish” value [3] was 1.55%, the “Length/fish (cm) Mean” value [4] was 17.08 cm and the “Weight/fish (g) Mean” value [4] was 100.46 g. The “Δ Mean % (Treatment vs. control) Length/fish” value [4] was −0.81%, the “Δ Mean % (Treatment vs. control) Weight/fish” value [4] was −4.78% and the “Length/fish (cm) Mean” value [5] was 34.21 cm. For the same substance, the “Weight/fish (g) Mean” value [5] was 859.1 g, the “Δ Mean % (Treatment vs. control) Length/fish” value [5] was −0.49% and the “Δ Mean % (Treatment vs. control) Weight/fish” value [5] was −0.72%. For the same substance, the “% big fish (Big fish 279 dph >1000 g)” value [6] was 12.9%, the “% small fish (Small fish 279 dph >476 g)” value [6] was 6.6% and the “Δ Treatment - Control (%) big fish (>1000 g)” value [6] was 2.7%. For the same substance, the “Δ Treatment - Control (%) small fish (>476 g)” value [6] was −2.6%, the “Big fish # (Big fish 279 dph >1000 g)” value [7] was 57 and the “Small fish # (Small fish 279 dph)” value [7] was 29. The “Average FCR/cage” value [6] was 0.00%, the “Average density (body/cage)” value [6] was −1.55% and the “Average weight gain/fish (g)” value [6] was 2.11%. For the same substance, the “Average weight/fish (g)” value [6] was 0.97%, the “Total weight/cage (g)” value [6] was −0.53% and the “Length/fish (cm) Mean” value [8] was 16.04 cm. The “Weight/fish (g) Mean” value [8] was 87.28 g, the “Δ Mean % (Treatment vs. control) Length/fish” value [8] was 1.58% and the “Δ Mean % (Treatment vs. control) Weight/fish” value [8] was 6.15%. For the same substance, the “Length/fish (cm) Mean” value [9] was 30.45 cm, the “Weight/fish (g) Mean” value [9] was 617.44 g and the “Δ Mean % (Treatment vs. control) Length/fish” value [9] was 1.06%. The “Δ Mean % (Treatment vs. control) Weight/fish” value [9] was 2.58%, the “Length/fish (cm) Mean” value [10] was 17.07 cm and the “Weight/fish (g) Mean” value [10] was 105.78 g. The “Δ Mean % (Treatment vs. control) Length/fish” value [10] was −0.87%, the “Δ Mean % (Treatment vs. control) Weight/fish” value [10] was 0.27% and the “Length/fish (cm) Mean” value [11] was 34.19 cm. For the same substance, the “Weight/fish (g) Mean” value [11] was 863.26 g, the “Δ Mean % (Treatment vs. control) Length/fish” value [11] was −0.55% and the “Δ Mean % (Treatment vs. control) Weight/fish” value [11] was −0.24%. The “% big fish (Big fish 279 dph >1000 g)” value [12] was 10.8%, the “% small fish (Small fish 279 dph >476 g)” value [12] was 5.4% and the “Δ Treatment - Control (%) big fish (>1000 g)” value [12] was 0.5%. The “Δ Treatment - Control (%) small fish (>476 g)” value [12] was −3.7%, the “Big fish # (Big fish 279 dph >1000 g)” value [13] was 46 and the “Small fish # (Small fish 279 dph)” value [13] was 23. For the same substance, the “Average FCR/cage” value [12] was 0.00%, the “Average density (body/cage)” value [12] was −4.89% and the “Average weight gain/fish (g)” value [12] was 1.43%. The “Average weight/fish (g)” value [12] was 1.37%, the “Total weight/cage (g)” value [12] was −4.56% and the “Length/fish (cm) Mean” value [14] was 15.73 cm. The “Weight/fish (g) Mean” value [14] was 82.52 g, the “Δ Mean % (Treatment vs. control) Length/fish” value [14] was −0.38% and the “Δ Mean % (Treatment vs. control) Weight/fish” value [14] was 0.36%. The “Length/fish (cm) Mean” value [15] was 30.53 cm, the “Weight/fish (g) Mean” value [15] was 628.2 g and the “Δ Mean % (Treatment vs. control) Length/fish” value [15] was 1.33%. For the same substance, the “Δ Mean % (Treatment vs. control) Weight/fish” value [15] was 4.37%, the “Length/fish (cm) Mean” value [16] was 17.78 cm and the “Weight/fish (g) Mean” value [16] was 109.68 g. The “Δ Mean % (Treatment vs. control) Length/fish” value [16] was 3.25%, the “Δ Mean % (Treatment vs. control) Weight/fish” value [16] was 3.96% and the “Length/fish (cm) Mean” value [17] was 34.04 cm. For the same substance, the “Weight/fish (g) Mean” value [17] was 840.39 g, the “Δ Mean % (Treatment vs. control) Length/fish” value [17] was −0.99% and the “Δ Mean % (Treatment vs. control) Weight/fish” value [17] was −2.88%. For the same substance, the “% big fish (Big fish 279 dph >1000 g)” value [18] was 20.4%, the “% small fish (Small fish 279 dph >476 g)” value [18] was 5.6% and the “Δ Treatment - Control (%) big fish (>1000 g)” value [18] was 10.2%. For the same substance, the “Δ Treatment - Control (%) small fish (>476 g)” value [18] was −3.5%, the “Big fish # (Big fish 279 dph >1000 g)” value [19] was 91 and the “Small fish # (Small fish 279 dph)” value [19] was 25. For the same substance, the “Average FCR/cage” value [18] was −2.14%, the “Average density (body/cage)” value [18] was −0.67% and the “Average weight gain/fish (g)” value [18] was 13.57%. For the same substance, the “Average weight/fish (g)” value [18] was 7.11%, the “Total weight/cage (g)” value [18] was 6.23% and the “Length/fish (cm) Mean” value [20] was 16.17 cm. The “Weight/fish (g) Mean” value [20] was 89.02 g, the “Δ Mean % (Treatment vs. control) Length/fish” value [20] was 2.41% and the “Δ Mean % (Treatment vs. control) Weight/fish” value [20] was 8.27%. The “Length/fish (cm) Mean” value [21] was 30.65 cm, the “Weight/fish (g) Mean” value [21] was 649.16 g and the “Δ Mean % (Treatment vs. control) Length/fish” value [21] was 1.73%. The “Δ Mean % (Treatment vs. control) Weight/fish” value [21] was 7.85%, the “Length/fish (cm) Mean” value [22] was 17.21 cm and the “Weight/fish (g) Mean” value [22] was 106.64 g. The “Δ Mean % (Treatment vs. control) Length/fish” value [22] was −0.06%, the “Δ Mean % (Treatment vs. control) Weight/fish” value [22] was 1.08% and the “Length/fish (cm) Mean” value [23] was 34.56 cm. For the same substance, the “Weight/fish (g) Mean” value [23] was 912.05 g, the “Δ Mean % (Treatment vs. control) Length/fish” value [23] was 0.52% and the “Δ Mean % (Treatment vs. control) Weight/fish” value [23] was 5.40%. The “average weight of males and females compared to their respective controls” value (differential analysis of male vs female performances) was “improved average weight”.
